The experiment deals with normal human dermal fibroblasts (NHDF pool PF2). Briefly: Incorporation of thymidine, proline and leucine in macromolecules neosynthesized by fibroblasts in culture. The class given is cell-based. The note with it: for Leucine incorporation / Proline incorporation / Thymidine incorporation: NHDF in vitro culture. On the procedure: A study was performed with the aim of evaluating, via a screening method, the effects of the compounds on the growth of fibroblasts and the synthesis of the major constituents of the extracellular matrix. The technique made it possible to study and evaluate the advantage of taurine on this cell metabolism (T. Shigematsu et al. Biochimica et Biophysica Acta 1200 (1994) 79-83).
A pool of normal human dermal fibroblasts (NHDF pool PF2, used at the eighth passage) was cultured under standard conditions in a medium: DMEM, 2 mM L-glutamine, 50 IU/ml/50 […] penicillin/streptomycin, 0.5% fetal calf serum.
Taurine was tested at concentrations of 10 mM and 1 mM in a sterile culture medium, against an untreated control blank.
The figures in bold are those for which there is a significant variation (stat. sign. meaning statistical significance: p<0.005). The results are expressed as a percentage of the control.

[1] abbreviates: at the two concentrations (1 mM, 10 mM), fibroblasts.

Entries after “also recorded” stand apart in the source; their conditions may differ.

These results are taken from US9138408B2, “Use of taurine for treating alopecia” (L'OREAL, priority 2002, dated 2015).

Consider `NCCS(=O)(=O)O` [taurine, Taurine], for which, for the setting “1 mM taurine”, the Leucine incorporation was found to be 100 % control, the Proline incorporation was determined as 88 % control and the Thymidine incorporation is listed as 89 % control. Besides, for the setting “10 mM taurine”, the Leucine incorporation is listed as 105 % control, the Proline incorporation came to 87 % control and the Thymidine incorporation was 90 % control. For the same compound, under setting [1], the “incorporation of leucine (representative of noncollagen protein synthesis), in words” value is given as “did not significantly modify; also recorded: without impairing that of leucine”; the “incorporation of proline by the fibroblasts, in words” value is listed as “did significantly inhibit; also recorded: reduces the incorporation of proline”; the “incorporation of thymidine (representative of cell proliferation), in words” value was “did not significantly modify”.
